Assay results: patent US20140190225A1, “ALTERING ANIMAL WASTE COMPOSITION” (AgResearch Limited, priority 2004, published 2014)

Tests used:
nitrous oxide emissions = test: Lysimeter study: nitrous oxide emission
Text: (§1) Undisturbed soil lysimeters (30 cm diameter×50 cm depth) were collected from a pastoral site near Lake Taupo which had been under a cutting regime with no grazing animals for over 18 months. The soil was a Taupo sandy loam (yellow brown pumice or allophanic soil). A gap (c. 1 cm) between the side of the soil cores and the PVC lysimeter housing was filled with Vaseline to stop possible edge-flow of water or urine. The lysimeters were transferred to a lysimeter facility (near Hamilton, New Zealand) where they were buried in soil so that the soil surface in the lysimeter was at ground level. However, the lysimeter casing extended about 4 cm above the soil surface to stop any lateral surface loss.
There were five replicate lysimeters with the following treatments included: a control, urine, urine+DCD, and urine+4 MP. Urine was collected from Jersey dairy cows, stored at 4° C. and applied to the lysimeters within 4 days. The urine solution was applied at 10 L/m^2 giving the equivalent of 800 kg N/ha (similar to that for a cow urine patch). For the DCD and 4 MP treatments, the inhibitor compounds were dissolved in the urine prior to application to represent urine excreted from inhibitor-administered animals. Inputs in these treatments were equivalent to 1.5 g DCD/m^2 and 0.1 g 4 MP/m^2.
Lysimeters were left to stabilise for several weeks after installation in the facility. Treatments were applied in May 2004. Pasture on the lysimeters was trimmed prior to treatment application and was regularly cut at heights and intervals similar to that under dairy cow grazing.
Nitrous oxide (N2O) emission from the main lysimeters was measured using a standard closed chamber method. Chambers were placed on the lysimeters at regular intervals during the study for periods of one hour at around midday. Gas samples were collected at 0, 30 and 60 minutes from the headspace of the chambers for N2O analysis by gas chromatography. […] Cumulative N2O emissions over the measurement period averaged 1.2 and 0.5 kg N/ha for the urine and urine+DCD treatments, giving a 57% reduction from DCD.

[1] = Tolerability of abomasal infusion in sheep; type: in vivo; settings: DCD 15 g/day, 4 MP 1 g/day, Agrotain 80 g/day
Text: (§2) Sheep were then transferred indoors to metabolism crates.

nitrate leaching = test: Lysimeter study: nitrate leaching; settings: inhibitor added to cow urine, 1.5 g DCD/m^2 or 0.1 g 4 MP/m^2; 104 days
Text: as §1
There were five replicate lysimeters with the following treatments included: a control, urine, urine+DCD, and urine+4 MP. Urine was collected from Jersey dairy cows, stored at 4° C. and applied to the lysimeters within 4 days. The urine solution was applied at 10 L/m^2 giving the equivalent of 800 kg N/ha (similar to that for a cow urine patch). […]
Nitrate leaching from lysimeters was measured by collection of leachate draining from the base of each lysimeter. This drainage water was collected at regular intervals and analysed for nitrate concentration. […]

[2] = test system: nitrification of urine/urea-N in soil; test: Soil incubation with urine from abomasally infused sheep: nitrification; settings: urine from sheep with abomasal infusion, DCD 15 g/day or 4 MP 1 g/day; soil incubated at 20° C.
Protocol: (§3) This was determined by firstly measuring the urea concentration in urine samples and adjusting the urine volume (or in a few samples with low concentrations, urea was added) so that the same rate of urea-N was added to soil (100 g) in plastic bags. The soil was a Horotiu silt loam derived from volcanic ash taken from a pastoral site which had been ungrazed for over 6 months so that no residual animal urine was present.
(§4) The urine-treated soil samples were incubated at 20° C. and sub-samples were removed at regular intervals over time for analysis of ammonium and nitrate in 2M KCl extracts using standard methods. The level of inhibition of nitrification was evident from less nitrate formation (FIG. 4B; P<0.001 at all incubation times) and higher ammonium levels (FIG. 4A; P<0.001 at all incubation times). Inhibition of nitrification was higher for DCD than for 4 MP (P<0.01), with an average reduction in nitrate production relative to the control of 96 and 51%, respectively (FIG. 4C). This difference may have been influenced by the rate of inhibitor used.

[3] = test system: nitrification inhibition in soil; test: Laboratory soil incubation with urine from DCD-treated cows
Protocol: A laboratory incubation experiment was set up to confirm that the DCD contained in urine from DCD-treated cows retained its nitrification inhibition properties after application to soil. Urine from DCD-treated cows was compared to urine from non-treated cows spike with varying rates of DCD.

[4] = DCD in urine of dairy heifers drenched daily; type: in vivo; settings: daily drench
Text: In addition, in a separate study, dairy heifers were drenched daily with a DCD solution.

[5] = test system: nitrification of urine/urea-N in soil; test: Soil incubation with urine from ruminally infused sheep: nitrification; settings: urine from sheep with ruminal infusion of DCD 15 g/day
Protocol: as §3, §4
(§5) The 12 sheep were randomly allocated to one of 2 treatments; water infusion (Control) or DCD at 15 g/day (DCD group). Experimental methodology was the same as for the abomasal infusion study in that there was a 4 day period of continuous infusion followed by an 11 day non-treatment clearance/rest period.

[6] = Excretion efficiency of DCD in non-lactating dairy cows (metabolism stall study); type: in vivo
Protocol: The efficiency of excretion of DCD in urine relative to DCD administered to animals was determined in a metabolism stall study involving five non-lactating dairy cows. The study was conducted on the DairyNZ Lye Farm, near Hamilton, New Zealand.
Each cow was fed a diet of pasture silage.
The five cows were administered DCD via addition to the pasture silage feed at a dosage rate was 30 g/animal/day.
Animal waste collectors were fitted to animals and configured to collect urine and dung separately. The animal waste was analysed for DCD concentration using known analysis techniques.

[7] = Freezing of urine: presence and activity of inhibitors; type: physicochemical; settings: urine frozen at −20° C.
Text: During each infusion period the sheep were housed in metabolism crates to allow daily collection of urine and faeces samples. Single urination event samples were also collected from each sheep every day and were frozen for subsequent analysis of inhibitor content and for inhibitory activity in soil.

[8] = DCD in urine of sheep, ruminal infusion (HPLC); type: in vivo
Protocol: as §5
Presence of DCD in urine samples was determined using high-performance liquid chromotography. […] However, concentrations of DCD in urine were lower at day 1 of infusion than days 2-4, as expected because of time for rumen processing. Levels declined after ceasing infusion and were negligible within 7 days (FIG. 5).

[9] = test system: conversion of nitrogen containing compounds; settings: cited from earlier work
[10] = DCD in urine of sheep, abomasal infusion (HPLC); type: in vivo
Text: as §2
Infusion of treatments continued for 4 days, after which there was an 11 day non-treatment clearance/rest period before repeating this phase. Sheep allocation to treatments changed over each period in a statistical cross-over design (defined by statisticians) so that 11 sheep had been subjected to each of 3 treatments (control, DCD and 4 MP), and so that within- and between-sheep variability could be evaluated.
Presence of DCD in urine samples was determined using high-performance liquid chromotography. […] There was some variability between sheep in DCD concentrations in urine, but this reflected differences in urination volumes (FIG. 3) so that there was much less difference in the amount of DCD excreted per urination. Concentrations of DCD in urine declined to negligible levels within 7 days after ceasing infusion (FIG. 2).

[11] = Excretion efficiency of DCD in sheep; type: in vivo
[12] = cows, 30 g/animal/day in feed, at equilibrium

Cc1cn[nH]c1 [4 MP, 4 methylpyrazole]
effect on nitrous oxide emissions (nitrous oxide emissions; inhibitor added to urine, lysimeters): reducing
effect of infusion on sheep (live-weight changes, body condition, general bodily function, feed intake) [1]: no adverse effect
reduction in cumulative nitrate leaching versus urine treatment (nitrate leaching): 71%
average reduction in nitrate production relative to the control [2]: 51%

N#CN=C(N)N [DCD, dicyandiamide]
reduction in cumulative N2O emissions (nitrous oxide emissions; urine+DCD versus urine): 57%
cumulative N2O emissions over the measurement period (nitrous oxide emissions; urine+DCD, 1.5 g DCD/m^2, urine alone 1.2): 0.5 kg N/ha
DCD in urine from DCD-treated cows, measured rate equivalent ([3]; FIG. 11 legend): 51 kg DCD/ha
nitrification inhibition in soil of DCD in urine from treated cows versus urine spiked with an equivalent level of DCD ([3]; laboratory incubation): same level of nitrification inhibition
DCD concentration in urine over a 90 day treatment period [4]: remained relatively constant
effect of infusion on sheep (live-weight changes, body condition, general bodily function, feed intake) [1]: no adverse effect
reduction in cumulative nitrate leaching versus urine treatment (nitrate leaching): 56%
average reduction in nitrate production [5]: 81%
efficiency of excretion in urine ([6]; cattle such as beef or dairy): 80-81%
DCD administered recovered in dung [6, 12]: 10%
DCD administered recovered in urine [6, 12]: 81%
effect of freezing urine on presence or activity [7]: no effect
DCD excretion in urine over the infusion period ([8]; DCD 15 g/day ruminal infusion, 4 days): high levels of DCD were absorbed and excreted in urine in an unaltered form
time for DCD in urine to become negligible after ceasing infusion ([8]; ruminal infusion 15 g/day): ≤ 7 days
effectiveness at a rate of approximately 5 kg/ha ([9]; DCD rate on land approximately 5 kg/ha): relatively ineffective
improvement at rates in excess of 10 kg/ha compared to 10 kg/ha ([9]; application to land, most soils, rainfall below about 1500 mm/year): negligible improvements
DCD concentration in urine during the infusion period ([10]; DCD 15 g/day abomasal infusion, versus control, P<0.001): highly significant increase
time for DCD in urine to decline to negligible levels after ceasing infusion ([10]; abomasal infusion 15 g/day): ≤ 7 days
average reduction in nitrate production relative to the control [2]: 96%
efficiency of transfer to urine [11]: approximately 86%
